# According to patent US9833497B2, “Human originated EGF domain proteins and use of the same” (CHENGDU SOURCEBIO LIMITED-LIABILITY COMPANY, priority 2013, dated 2017):
# System: E. coli BL21
# Assay: MIC against Gram-negative bacteria: E. coli BL21
# Type: cell-based
# Conditions: 96-well plate, 5×10^5 CFU/mL, 37° C., 10 h
# Outline: (§1)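 MIC = lowest concentration of recombinant protein showing no growth. Test proteins: purified human-derived EGF domain proteins, two-fold dilution series, three wells per concentration; inoculum 5×10^5 CFU/mL in LB; incubation 37° C with shaking at 175 rpm.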
row,Substance,MIC E. coli BL21
1,PRT728 (ATNPCKDNNGGCEQVCVLSHRTDNDGLGFRCKCTFGFQLDTDERHCI; listed as Homo sapiens),25 µg/mL

# Same assay, conditions: 10 h cultivation at 37° C., 5×10^5 CFU/mL, two-fold serial dilution
row,Substance,MIC E. coli BL21
1,PRT1099 (PSTVCGNEKTNLTCYNGGNCTEFQTELKCMCRPGFTGEWCE; listed as Homo sapiens),50 µg/mL
2,PRT1075 (EVNKCSRCLEGACVVNKQSGDVTCNCTDGRVAPSCL; listed as Homo sapiens),12.5 µg/mL

# System: Citrobacter diversus
# Assay: MIC against Gram-negative bacteria: Citrobacter diversus
# Type: cell-based
# Conditions: 96-well plate, 5×10^5 CFU/mL, 37° C., 10 h
# Outline: as §1
row,Substance,MIC C. diversus
1,PRT728 (ATNPCKDNNGGCEQVCVLSHRTDNDGLGFRCKCTFGFQLDTDERHCI; listed as Homo sapiens),25 µg/mL

# Same assay, conditions: 10 h cultivation at 37° C., 5×10^5 CFU/mL, two-fold serial dilution
row,Substance,MIC C. diversus
1,PRT1099 (PSTVCGNEKTNLTCYNGGNCTEFQTELKCMCRPGFTGEWCE; listed as Homo sapiens),25 µg/mL
2,PRT1075 (EVNKCSRCLEGACVVNKQSGDVTCNCTDGRVAPSCL; listed as Homo sapiens),50 µg/mL

# System: Klebsiella pneumonia
# Assay: MIC against Gram-negative bacteria: Klebsiella pneumonia
# Type: cell-based
# Conditions: 96-well plate, 5×10^5 CFU/mL, 37° C., 10 h
# Outline: as §1
row,Substance,MIC K. pneumonia
1,PRT728 (ATNPCKDNNGGCEQVCVLSHRTDNDGLGFRCKCTFGFQLDTDERHCI; listed as Homo sapiens),12.5 µg/mL

# Same assay, conditions: 10 h cultivation at 37° C., 5×10^5 CFU/mL, two-fold serial dilution
row,Substance,MIC K. pneumonia
1,PRT1099 (PSTVCGNEKTNLTCYNGGNCTEFQTELKCMCRPGFTGEWCE; listed as Homo sapiens),50 µg/mL
2,PRT1075 (EVNKCSRCLEGACVVNKQSGDVTCNCTDGRVAPSCL; listed as Homo sapiens),50 µg/mL

# System: Pseudomonas aeruginosa
# Assay: MIC against Gram-negative bacteria: Pseudomonas aeruginosa
# Type: cell-based
# Conditions: 96-well plate, 5×10^5 CFU/mL, 37° C., 10 h
# Outline: as §1
row,Substance,MIC P. aeruginosa
1,PRT728 (ATNPCKDNNGGCEQVCVLSHRTDNDGLGFRCKCTFGFQLDTDERHCI; listed as Homo sapiens),25 µg/mL

# Same assay, conditions: 10 h cultivation at 37° C., 5×10^5 CFU/mL, two-fold serial dilution
row,Substance,MIC P. aeruginosa
1,PRT1099 (PSTVCGNEKTNLTCYNGGNCTEFQTELKCMCRPGFTGEWCE; listed as Homo sapiens),12.5 µg/mL
2,PRT1075 (EVNKCSRCLEGACVVNKQSGDVTCNCTDGRVAPSCL; listed as Homo sapiens),25 µg/mL

# System: Serratia marcescens
# Assay: MIC against Gram-negative bacteria: Serratia marcescens
# Type: cell-based
# Conditions: 96-well plate, 5×10^5 CFU/mL, 37° C., 10 h
# Outline: as §1
row,Substance,MIC S. marcescens
1,PRT728 (ATNPCKDNNGGCEQVCVLSHRTDNDGLGFRCKCTFGFQLDTDERHCI; listed as Homo sapiens),25 µg/mL

# Same assay, conditions: 10 h cultivation at 37° C., 5×10^5 CFU/mL, two-fold serial dilution
row,Substance,MIC S. marcescens
1,PRT1099 (PSTVCGNEKTNLTCYNGGNCTEFQTELKCMCRPGFTGEWCE; listed as Homo sapiens),12.5 µg/mL
2,PRT1075 (EVNKCSRCLEGACVVNKQSGDVTCNCTDGRVAPSCL; listed as Homo sapiens),50 µg/mL

# System: E. coli DH5α
# Assay: Antibacterial activity: MIC and growth curve against E. coli DH5α in 96-well plate
# Type: cell-based
# Conditions: minimal inhibitory concentration against E. coli DH5α; 96-well plate, 5×10^5 CFU/mL, 37° C., judged after 8 h
# Outline: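 MIC taken as lowest protein level with no bacterial growth, tracked by A600 every 30 min during 37 °C, 175 rpm culture. Two-fold protein series 50-12.5 μg/mL final, triplicate wells, against 5×10^5 CFU/mL of LB-washed mid-log cells.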
row,Substance,MIC
1,PRT1099 (PSTVCGNEKTNLTCYNGGNCTEFQTELKCMCRPGFTGEWCE; listed as Homo sapiens),12.5 µg/mL
2,PRT1075 (EVNKCSRCLEGACVVNKQSGDVTCNCTDGRVAPSCL; listed as Homo sapiens),25 µg/mL
3,PRT728 (ATNPCKDNNGGCEQVCVLSHRTDNDGLGFRCKCTFGFQLDTDERHCI; listed as Homo sapiens),25 µg/mL

# System: Moraxella catarrhalis
# Assay: MIC against Gram-negative bacteria: Moraxella catarrhalis
# Type: cell-based
# Conditions: 96-well plate, 5×10^5 CFU/mL, 37° C., 10 h
# Outline: as §1
row,Substance,MIC M. catarrhalis
1,PRT728 (ATNPCKDNNGGCEQVCVLSHRTDNDGLGFRCKCTFGFQLDTDERHCI; listed as Homo sapiens),12.5 µg/mL

# Same assay, conditions: 10 h cultivation at 37° C., 5×10^5 CFU/mL, two-fold serial dilution
row,Substance,MIC M. catarrhalis
1,PRT1099 (PSTVCGNEKTNLTCYNGGNCTEFQTELKCMCRPGFTGEWCE; listed as Homo sapiens),12.5 µg/mL
2,PRT1075 (EVNKCSRCLEGACVVNKQSGDVTCNCTDGRVAPSCL; listed as Homo sapiens),25 µg/mL

# System: Aeromonas hydrophila
# Assay: MIC against Gram-negative bacteria: Aeromonas hydrophila
# Type: cell-based
# Conditions: 96-well plate, 5×10^5 CFU/mL, 37° C., 10 h
# Outline: as §1
row,Substance,MIC A. hydrophila
1,PRT728 (ATNPCKDNNGGCEQVCVLSHRTDNDGLGFRCKCTFGFQLDTDERHCI; listed as Homo sapiens),12.5 µg/mL

# Same assay, conditions: 10 h cultivation at 37° C., 5×10^5 CFU/mL, two-fold serial dilution
row,Substance,MIC A. hydrophila
1,PRT1099 (PSTVCGNEKTNLTCYNGGNCTEFQTELKCMCRPGFTGEWCE; listed as Homo sapiens),50 µg/mL
2,PRT1075 (EVNKCSRCLEGACVVNKQSGDVTCNCTDGRVAPSCL; listed as Homo sapiens),25 µg/mL

# System: Enterobacter cloacae
# Assay: MIC against Gram-negative bacteria: Enterobacter cloacae
# Type: cell-based
# Conditions: 96-well plate, 5×10^5 CFU/mL, 37° C., 10 h
# Outline: as §1
row,Substance,MIC E. cloacae
1,PRT728 (ATNPCKDNNGGCEQVCVLSHRTDNDGLGFRCKCTFGFQLDTDERHCI; listed as Homo sapiens),25 µg/mL

# Same assay, conditions: 10 h cultivation at 37° C., 5×10^5 CFU/mL, two-fold serial dilution
row,Substance,MIC E. cloacae
1,PRT1099 (PSTVCGNEKTNLTCYNGGNCTEFQTELKCMCRPGFTGEWCE; listed as Homo sapiens),12.5 µg/mL
2,PRT1075 (EVNKCSRCLEGACVVNKQSGDVTCNCTDGRVAPSCL; listed as Homo sapiens),25 µg/mL

# System: Proteus vulgaris
# Assay: MIC against Gram-negative bacteria: Proteus vulgaris
# Type: cell-based
# Conditions: 96-well plate, 5×10^5 CFU/mL, 37° C., 10 h
# Outline: as §1
row,Substance,MIC P. vulgaris
1,PRT728 (ATNPCKDNNGGCEQVCVLSHRTDNDGLGFRCKCTFGFQLDTDERHCI; listed as Homo sapiens),12.5 µg/mL

# Same assay, conditions: 10 h cultivation at 37° C., 5×10^5 CFU/mL, two-fold serial dilution
row,Substance,MIC P. vulgaris
1,PRT1099 (PSTVCGNEKTNLTCYNGGNCTEFQTELKCMCRPGFTGEWCE; listed as Homo sapiens),50 µg/mL
2,PRT1075 (EVNKCSRCLEGACVVNKQSGDVTCNCTDGRVAPSCL; listed as Homo sapiens),12.5 µg/mL

# System: Proteus mirabilis
# Assay: MIC against Gram-negative bacteria: Proteus mirabilis
# Type: cell-based
# Conditions: 96-well plate, 5×10^5 CFU/mL, 37° C., 10 h
# Outline: as §1
row,Substance,MIC P. mirabilis
1,PRT728 (ATNPCKDNNGGCEQVCVLSHRTDNDGLGFRCKCTFGFQLDTDERHCI; listed as Homo sapiens),12.5 µg/mL

# Same assay, conditions: 10 h cultivation at 37° C., 5×10^5 CFU/mL, two-fold serial dilution
row,Substance,MIC P. mirabilis
1,PRT1099 (PSTVCGNEKTNLTCYNGGNCTEFQTELKCMCRPGFTGEWCE; listed as Homo sapiens),25 µg/mL
2,PRT1075 (EVNKCSRCLEGACVVNKQSGDVTCNCTDGRVAPSCL; listed as Homo sapiens),50 µg/mL
